The source made the active and inactive calls.
Columns and labels:
Cytochrome P450 1A2 = target: T1, Cytochrome P450 1A2 (Homo sapiens, UniProt P05177);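 further: PubChem cytochrome P450 panel assay, CYP1A2 panel member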
T1 sequence (P05177 whole entry): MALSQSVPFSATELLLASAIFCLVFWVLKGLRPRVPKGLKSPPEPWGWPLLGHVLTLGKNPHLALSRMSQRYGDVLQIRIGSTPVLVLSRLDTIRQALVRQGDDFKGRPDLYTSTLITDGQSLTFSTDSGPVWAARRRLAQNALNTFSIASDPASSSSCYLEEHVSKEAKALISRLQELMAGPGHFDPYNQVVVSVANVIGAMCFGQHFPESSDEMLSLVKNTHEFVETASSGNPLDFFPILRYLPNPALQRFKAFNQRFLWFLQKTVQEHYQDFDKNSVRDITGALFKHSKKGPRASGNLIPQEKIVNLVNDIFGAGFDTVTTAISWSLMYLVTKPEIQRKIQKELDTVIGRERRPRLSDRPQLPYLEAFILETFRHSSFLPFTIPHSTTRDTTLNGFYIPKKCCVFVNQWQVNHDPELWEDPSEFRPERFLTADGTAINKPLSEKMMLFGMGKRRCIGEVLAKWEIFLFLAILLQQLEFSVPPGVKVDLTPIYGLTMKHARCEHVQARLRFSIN

Cytochrome P450 2C9 = Cytochrome P450 2C9 (Homo sapiens, UniProt P11712)
H9c2 = test: cells; assay type: functional, cell-based; conditions: Rattus norvegicus, H9c2, Myocardium;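 further: confirmatory concentration-response retest of ultra-high-throughput screening hits for modulation of myocardial damage; cell death induced by hydrogen peroxide oxidative stress; compound pretreatment for 60 min then peroxide exposure for 2 h; potency is for protecting the cells against peroxide damage rather than for killing them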
[1] = target: T2, Heat shock factor protein 1 (Mus musculus, UniProt P38532); test: decrease of HSF1-responsive luciferase luminescence – cell-based, NIH3T3, dose retest, confirmation (AID 2382); assay type: functional;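 further: NIH3T3 fibroblasts with HSF1-driven luciferase reporter stressed by proteasome inhibitor MG132; luminescence from HSF1-driven luciferase expression after 8 hours of MG132 stress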
T2 sequence (P38532 whole entry): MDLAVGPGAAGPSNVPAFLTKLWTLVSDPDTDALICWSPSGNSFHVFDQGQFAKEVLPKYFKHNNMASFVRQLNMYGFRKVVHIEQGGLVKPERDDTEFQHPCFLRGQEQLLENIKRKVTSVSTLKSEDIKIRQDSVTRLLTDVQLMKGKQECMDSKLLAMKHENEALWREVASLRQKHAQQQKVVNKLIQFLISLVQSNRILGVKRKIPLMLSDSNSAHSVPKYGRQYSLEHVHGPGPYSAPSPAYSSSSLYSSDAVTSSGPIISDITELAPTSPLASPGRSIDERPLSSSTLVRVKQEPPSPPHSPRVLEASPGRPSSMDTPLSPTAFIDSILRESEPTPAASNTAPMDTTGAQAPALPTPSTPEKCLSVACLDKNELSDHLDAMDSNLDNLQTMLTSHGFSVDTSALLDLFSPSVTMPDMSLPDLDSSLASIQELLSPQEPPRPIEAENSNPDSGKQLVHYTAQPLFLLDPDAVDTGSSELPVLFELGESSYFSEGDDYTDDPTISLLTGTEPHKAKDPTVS

[2] = target: T3, Rac GTPase-activating protein 1 (Homo sapiens, UniProt Q9H0H5); test: blockers of MgcRacGAP-driven Rac1 GTP hydrolysis – biochemical, ADP Hunter fluorescence, primary and confirmatory, confirmation (AID 624330); assay type: functional
T3 sequence (Q9H0H5 whole entry): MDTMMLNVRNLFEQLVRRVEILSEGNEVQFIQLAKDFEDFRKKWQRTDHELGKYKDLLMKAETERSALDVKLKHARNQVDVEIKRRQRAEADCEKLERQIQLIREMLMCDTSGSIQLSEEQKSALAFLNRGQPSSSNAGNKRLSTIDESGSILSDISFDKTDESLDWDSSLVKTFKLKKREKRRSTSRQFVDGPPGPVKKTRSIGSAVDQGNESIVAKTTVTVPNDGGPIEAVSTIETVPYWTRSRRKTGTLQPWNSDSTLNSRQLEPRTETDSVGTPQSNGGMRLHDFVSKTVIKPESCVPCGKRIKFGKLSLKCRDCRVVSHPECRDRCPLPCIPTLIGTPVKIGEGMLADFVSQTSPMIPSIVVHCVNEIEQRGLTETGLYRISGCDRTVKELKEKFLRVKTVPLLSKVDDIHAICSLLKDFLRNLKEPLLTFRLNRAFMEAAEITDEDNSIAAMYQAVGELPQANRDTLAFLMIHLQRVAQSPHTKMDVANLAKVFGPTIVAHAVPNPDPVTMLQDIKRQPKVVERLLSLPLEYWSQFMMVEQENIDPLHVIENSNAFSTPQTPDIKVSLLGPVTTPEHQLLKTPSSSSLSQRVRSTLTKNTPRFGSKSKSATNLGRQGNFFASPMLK

cells = assay type: functional
[3] = NIH3T3 cell viability loss – ATP luminescence, mouse fibroblasts, counter-screen, dose response (AID 2010); assay type: functional, cell-based;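 further: cells exposed to compound for about 90 hours before reading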
[4] = Trypanosoma cruzi growth suppression in host cells – NIH3T3 host cells, beta-gal luminescence, confirmation (AID 2044); assay type: functional, cell-based;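 further: intracellular parasites grown in NIH/3T3 mouse fibroblasts as host cells; luminescent beta-galactosidase reporter signal from transgenic T. cruzi replicating inside host cells; inhibitors lower the luminescence signal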
[5] = Luminescence Cell-Based Dose Retest to Confirm Inhibitors of Cancer Stem Cells. [Related pubchem assays (depositor defined):AID2717, AID2721]; assay type: functional; conditions: Homo sapiens
INS1 = test: INS-1E survival protection against cytokine death – cell-based, luminescence, retest, dose response (AID 449756); assay type: functional; conditions: Rattus norvegicus;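 further: cell death triggered by IL-1 beta plus TNF-alpha plus IFN-gamma mixture; protective hits raise ATP signal compared with cytokine alone wells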
Cytochrome P450 3A4 = Cytochrome P450 3A4 (Homo sapiens, UniProt P08684);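 further: CYP3A4 tested as one member of a cytochrome P450 panel screen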
Cytochrome P450 2C19 = Cytochrome P450 2C19 (Homo sapiens, UniProt P33261); test: Cytochrome panel assay with activity outcomes. Panel member name: p450-cyp2c19 Compounds with AC50 equal or less than 10 uM are considered active; assay type: functional; conditions: read-out: AC50
Cytochrome P450 2D6 = Cytochrome P450 2D6 (Homo sapiens, UniProt P10635);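 further: CYP2D6 member of a cytochrome P450 panel assay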
Cytochrome P450 2D6, sequence (P10635 whole entry): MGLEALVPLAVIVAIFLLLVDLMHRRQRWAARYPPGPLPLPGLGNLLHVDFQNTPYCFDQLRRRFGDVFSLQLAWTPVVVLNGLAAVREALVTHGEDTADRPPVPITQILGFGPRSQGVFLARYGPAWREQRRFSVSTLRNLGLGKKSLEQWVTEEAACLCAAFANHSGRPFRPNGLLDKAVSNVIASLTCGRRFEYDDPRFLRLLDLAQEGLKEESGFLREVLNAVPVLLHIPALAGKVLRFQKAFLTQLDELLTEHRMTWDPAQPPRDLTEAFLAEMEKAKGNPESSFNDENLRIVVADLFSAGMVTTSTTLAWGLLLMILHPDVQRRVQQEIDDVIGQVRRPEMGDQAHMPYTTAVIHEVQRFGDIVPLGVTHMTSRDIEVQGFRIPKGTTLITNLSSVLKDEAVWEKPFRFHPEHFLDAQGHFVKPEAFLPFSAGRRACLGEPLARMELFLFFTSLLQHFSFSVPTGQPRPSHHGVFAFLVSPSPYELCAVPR

Cytochrome P450 2C19, sequence (P33261 whole entry): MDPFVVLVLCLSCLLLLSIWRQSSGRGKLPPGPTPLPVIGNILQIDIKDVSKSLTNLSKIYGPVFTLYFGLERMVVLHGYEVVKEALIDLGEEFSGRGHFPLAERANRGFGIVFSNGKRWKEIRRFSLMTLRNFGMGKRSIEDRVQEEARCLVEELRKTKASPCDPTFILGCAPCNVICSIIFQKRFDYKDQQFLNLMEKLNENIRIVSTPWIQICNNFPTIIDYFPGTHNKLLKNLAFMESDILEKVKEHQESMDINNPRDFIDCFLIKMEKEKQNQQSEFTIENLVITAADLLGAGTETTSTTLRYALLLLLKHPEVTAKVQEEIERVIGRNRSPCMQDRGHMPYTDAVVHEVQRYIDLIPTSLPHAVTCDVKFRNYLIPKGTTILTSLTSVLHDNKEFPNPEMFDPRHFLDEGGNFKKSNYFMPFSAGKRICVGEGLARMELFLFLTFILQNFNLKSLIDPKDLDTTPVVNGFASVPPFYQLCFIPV
Cytochrome P450 2C9, sequence (P11712 whole entry): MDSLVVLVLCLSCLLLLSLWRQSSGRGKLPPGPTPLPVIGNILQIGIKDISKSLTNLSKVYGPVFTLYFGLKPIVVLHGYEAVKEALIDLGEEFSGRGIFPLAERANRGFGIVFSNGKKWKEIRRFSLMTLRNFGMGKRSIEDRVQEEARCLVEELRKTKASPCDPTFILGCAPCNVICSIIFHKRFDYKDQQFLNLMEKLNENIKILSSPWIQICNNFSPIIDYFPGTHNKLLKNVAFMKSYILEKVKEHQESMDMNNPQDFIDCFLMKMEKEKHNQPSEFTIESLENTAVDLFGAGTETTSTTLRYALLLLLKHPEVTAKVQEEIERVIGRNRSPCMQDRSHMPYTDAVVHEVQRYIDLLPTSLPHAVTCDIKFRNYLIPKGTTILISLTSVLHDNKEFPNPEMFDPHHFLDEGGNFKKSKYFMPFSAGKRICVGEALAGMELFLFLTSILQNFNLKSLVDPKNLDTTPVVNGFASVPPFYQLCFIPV
Cytochrome P450 3A4, sequence (P08684 whole entry): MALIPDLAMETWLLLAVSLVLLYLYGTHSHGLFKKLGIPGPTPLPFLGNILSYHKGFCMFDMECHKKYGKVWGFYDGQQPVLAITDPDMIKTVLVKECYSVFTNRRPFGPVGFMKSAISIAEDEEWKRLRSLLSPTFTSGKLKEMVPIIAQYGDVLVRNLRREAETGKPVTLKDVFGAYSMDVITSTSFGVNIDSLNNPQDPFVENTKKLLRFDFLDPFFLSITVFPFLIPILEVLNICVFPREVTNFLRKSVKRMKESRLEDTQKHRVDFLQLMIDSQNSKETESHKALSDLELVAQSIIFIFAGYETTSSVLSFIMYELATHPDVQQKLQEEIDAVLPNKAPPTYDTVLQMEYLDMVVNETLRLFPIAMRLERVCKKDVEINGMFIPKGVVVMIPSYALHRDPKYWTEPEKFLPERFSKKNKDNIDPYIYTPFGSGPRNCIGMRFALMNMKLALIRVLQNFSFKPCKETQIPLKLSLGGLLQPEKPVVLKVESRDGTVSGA

CCN(CC)C(=O)c1ccc(O)c(OC)c1
AC50 (Cytochrome P450 1A2): 12.6 µM (inconclusive)

Cc1nnc(NC(=O)c2cccc(NC(=O)C(C)C)c2)s1
AC50 (Cytochrome P450 2C9): 25.1 µM (inconclusive)
AC50 (Cytochrome P450 1A2): 39.8 µM (inconclusive)

CC(C)(C)OC(=O)CNC(=O)c1[nH]cnc1C(=O)NC(c1ccccc1)c1ccccc1
IC50 (H9c2): > 79 µM (inactive)

CCN(CC)C(=O)CSc1nc(O)c2ccccc2n1
IC50 (H9c2): > 79 µM (inactive)

CC1(C)CC(=O)C2=C(C1)N(c1ccc(F)cc1)C(=O)CC2c1ccccc1 (configuration not stated)
EC50 [1]: > 195 µM (not active)

COc1cc(/C=C/c2n[nH]c(-c3ccccc3O)n2)cc(OC)c1OC
IC50 (H9c2): > 79 µM (inactive)

COc1cc(OC)c(CN2CCCN(C)CC2)cc1Br
IC50 [2]: 107 µM (active)

Cc1ccc(NC(=O)CNCCCN2CCOCC2)cc1S(=O)(=O)N1CCCCC1
IC50 [2]: 76.5 µM (active)

COc1nc(Nc2ccc(O)cc2)nc(OC(C(F)(F)F)C(F)(F)F)n1
IC50 [2]: 35.1 µM (active)

Cn1cc(/C=C(\C#N)C(=O)Nc2cccc([N+](=O)[O-])c2)c2ccccc21
EC50 [1]: 4.14 µM (active)

COc1ccc2cc3cc(C(=O)Nc4cc(OC)c(OC)c(OC)c4)oc3nc2c1
IC50 (H9c2): > 79 µM (inactive)

O=c1ccc(NS(=O)(=O)c2ccc(Cl)cc2)cn1Cc1ccc(Cl)c(Cl)c1
AC50 (Cytochrome P450 1A2): 28.2 µM (inconclusive)

Cc1ccc(C)c(NC(=O)c2cc([N+](=O)[O-])cc([N+](=O)[O-])c2)c1
IC50 (cells): 10.1 µM (active)

C=C1SC(Nc2c(C)cc(C)cc2C)=NC12CCCCC2
EC50 [1]: > 195 µM (not active)
EC50 [3]: > 60 µM (not active)
EC50 [4]: 0.561 µM (active)

Cc1ccc(C(=O)N2N=C(c3ccc(Br)cc3)CC2c2ccccc2O)cc1 (configuration not stated)
EC50 [3]: 13.6 µM (active)
AC50 [5]: 3.63 µM (active)
EC50 [4]: 2.15 µM (active)
AC50 (INS1): 7.42 µM (active)

COc1cc(N)ccc1NC(=O)c1cccs1
IC50 [2]: 106 µM (active)

Cc1cccc(C(=O)O)c1C[C@H]1NCC[C@H]2c3ccccc3N[C@@H]12
AC50 (Cytochrome P450 1A2): 0.0631 µM (inconclusive)

CCn1nnc(NC(=O)COc2ccc(C3CCCCC3)cc2)n1
IC50 (cells): 18.4 µM (active)

CC(=O)COc1ccccc1OC(=O)c1ccco1
EC50 [1]: > 195 µM (not active)

COc1ccc2nc(NC(=O)CN3CCOCC3)sc2c1
EC50 [1]: > 195 µM (not active)

CN(Cc1ccccc1)C(=O)C1CCCN(Cc2ccc(Cl)cc2)C1 (configuration not stated)
IC50 [2]: 161 µM (active)

NC(=O)CC(NC(=O)Cc1ccc(Br)cc1)c1ccc(N2CCC(Cc3ccccc3)CC2)c([N+](=O)[O-])c1 (configuration not stated)
AC50 [5]: 12.3 µM (active)

CCNc1ncc2nc(-c3ccccc3)c(=O)n(CCc3ccccc3)c2n1
AC50 (Cytochrome P450 2C9): 1.26 µM (inconclusive)
AC50 (Cytochrome P450 3A4): 15.8 µM (inconclusive)
AC50 (Cytochrome P450 1A2): 12.6 µM (inconclusive)

CC1(c2ccccc2)NC(=O)N(CC(=O)Nc2cccc(/C=C/c3ccccn3)c2)C1=O (configuration not stated)
IC50 (H9c2): > 79 µM (inactive)

COC(=O)[C@@]1(Cc2ccc(F)cc2)[C@H]2c3cc(C(=O)N(C)C)n(C)c3C[C@H]2CN1C(=O)c1ccccc1
AC50 (Cytochrome P450 2C19): 25.1 µM (inconclusive)
AC50 (Cytochrome P450 1A2): 31.6 µM (inconclusive)

CN(C)c1cc(=O)n2c(n1)SCCC2
AC50 (Cytochrome P450 2C19): 28.2 µM (inconclusive)
AC50 (Cytochrome P450 1A2): 12.6 µM (inconclusive)

OCC#CCSc1nnc(-c2ccc(Br)cc2)o1
IC50 (cells): 5.2 µM (active)

COc1cccc2cc(C(=O)OC3CCN(C)CC3)c(=O)oc12
EC50 [1]: > 195 µM (not active)

Brc1c(-c2ccc3c(c2)OCO3)nc2ncccn12
IC50 (cells): 4.7 µM (active)

COc1ccc(-n2c(=O)c(CCc3ccccc3)nc3cncnc32)cc1
AC50 (Cytochrome P450 2C9): 20 µM (inconclusive)
AC50 (Cytochrome P450 1A2): 25.1 µM (inconclusive)

COc1ccc(CNc2ncc(-c3ccc(F)cc3)n2C)cc1OC
IC50 [2]: 56.8 µM (active)

C=CCNC(=S)N1CCN(Cc2ccc3c(c2)OCO3)CC1
IC50 [2]: 158 µM (active)

CS(=O)(=O)N(CC(=O)NCc1ccccc1)C1CCCCC1
EC50 [1]: > 195 µM (not active)

O=C1CCC(=O)N1CNc1ccccn1
EC50 [1]: > 195 µM (not active)

CCOC(=O)c1c(NC(=O)CNC2CCCc3ccccc32)sc(C(N)=O)c1C (configuration not stated)
EC50 [1]: 25 µM (active)

Cc1cc(OCC(=O)N2CCOCC2)cc2oc(=O)c3ccccc3c12
IC50 (H9c2): > 79 µM (inactive)

O=C(NCc1ccc2c(c1)OCO2)c1cc2c(s1)CS(=O)(=O)C2
EC50 [1]: > 195 µM (not active)

CCCCOc1ccc(N2CC(C(=O)NCCc3ccc(OC)c(OC)c3)CC2=O)cc1 (configuration not stated)
EC50 [1]: > 195 µM (not active)

CCOc1ccc(-n2ccnc2SCC(=O)Nc2nnc(CC)s2)cc1
AC50 (Cytochrome P450 1A2): 20 µM (inconclusive)

CCC1C=CC=CC[C@H](C)[C@@H](O)[C@](C)(O)C(=O)[C@@H](C)[C@H](O)[C@@H](C)C(=O)[C@H](C)[C@@H](O)[C@H](C)C=CC(=O)OC2[C@@H](C)C(CC1)OC1(CC[C@@H](C)C(C[C@H](C)O)O1)[C@@H]2C (some centres not stated)
AC50 [5]: 2.9 µM (active)

CCc1cccc(NC(=O)COC(=O)/C=C/c2cccs2)c1
EC50 [1]: > 195 µM (not active)

CCCCN=C(NNc1ccc(Br)cc1)C(=O)OCC
AC50 [5]: 2.89 µM (active)

CCCC(=O)NC(Nc1ccccc1F)C(Cl)(Cl)Cl (configuration not stated)
AC50 (Cytochrome P450 3A4): 14.1 µM (inconclusive)
AC50 (Cytochrome P450 1A2): 22.4 µM (inconclusive)

CCOC(=O)c1nn(-c2ccccc2)c2nc(Nc3ccccc3)cc(=O)n12
IC50 (cells): 5.99 µM (active)

CN(C(=O)CSc1nc(O)c2c(n1)CCCC2)C1CCCCC1
IC50 (H9c2): 33.3 µM (inactive)

CCOc1ncccc1C(=O)OCC(=O)N1CCc2ccccc21
IC50 (cells): 13.9 µM (active)

COC(=O)COc1ccc2c(=O)c(-c3ccccc3OC)coc2c1
IC50 (cells): 5.9 µM (active)

CNC(C)C(=O)NC(C(=O)N1CCCC1C(=O)NNc1ccccc1)C(C)C (configuration not stated)
AC50 [5]: 2.17 µM (active)

O=C(c1ccc(F)cc1)C1CCN(C(S)=Nc2ccccc2)CC1
AC50 (Cytochrome P450 2C19): 7.08 µM (inconclusive)
AC50 (Cytochrome P450 1A2): 12.6 µM (inconclusive)
AC50 (Cytochrome P450 2D6): 14.1 µM (inconclusive)

C[C@@H]1CCCC(CC(=O)O)(CC(=O)O)C1
AC50 (Cytochrome P450 1A2): 0.631 µM (inconclusive)

COc1cc(-c2cc3nc(NCCc4ccc(S(N)(=O)=O)cc4)ccn3n2)cc(OC)c1OC
IC50 (H9c2): > 79 µM (inactive)

CC(=O)OCc1nc(O)c2c(C)c(C)sc2n1
IC50 (H9c2): > 79 µM (inactive)

C/C(=N\NC(=O)c1nnn(-c2nonc2N)c1CN1CCc2ccccc21)c1ccccc1O
AC50 [5]: 2.72 µM (active)
AC50 (INS1): 1.98 µM (active)

CSc1ncnc2c1ncn2CCCNc1ccc(C)c(C)c1
IC50 [2]: 207 µM (active)

O=C(N/N=C/c1ccc(OC(=O)c2ccco2)cc1)c1ccccn1
IC50 (cells): 20.6 µM (active)

Oc1ccccc1/C=N/C1=NN(c2cccc(C(F)(F)F)c2)CC1
IC50 [2]: 16.9 µM (active)

N[C@@H](CCCP(=O)(O)O)C(=O)O
AC50 (Cytochrome P450 1A2): 31.6 µM (inconclusive)

Source: ChEMBL document CHEMBL1201862, “PubChem BioAssay data set” (2004)
